Test results reported in US11753407B2, “Compounds for treating spinal muscular atrophy” (PTC Therapeutics, Inc., priority 2012, dated 2023).

Columns and labels:
[1] = test system: SMN2 minigene mRNA (SMN2-A minigene) in HEK293H cells; test: SMN2 minigene mRNA splicing RT-qPCR assay in cultured cells; format: cell-based, human; settings: Homo sapiens, HEK293-H; concentration increasing full length SMN2 mRNA 1.5-fold relative to vehicle-treated cells; HEK293H cells with SMN2-A minigene, 24 hours, 7-point concentration data; read-out: EC1.5x for production of full length SMN2 mRNA
Summary of the method: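 Read-out: minigene-specific full-length (exon 7-included) SMN2 mRNA by one-step multiplex RT-qPCR, normalized to GAPDH and divided by vehicle-treated level. Stable SMN2-A minigene HEK293H cells, 24 h compound exposure, 7 concentrations in duplicate. EC1.5× = concentration raising FL mRNA 1.5-fold.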

[2] = test system: Smn protein in SMA patient fibroblast cells (GM03813); test: Smn protein assay in cultured cells (SMN HTRF); format: cell-based, human; settings: SMA patient fibroblast cells, 48 hours; for EC1.5x for Smn protein expression: 7-point concentration curve, SMN HTRF, concentration producing 1.5 times Smn protein vs DMSO vehicle control; for maximum fold (Fold) increase of Smn protein: 7-point concentration data, fold relative to vehicle control
Summary of the method: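 Read-out: HTRF 665/620 nm ratio, blank-subtracted as ΔF, then expressed as fold over DMSO vehicle. Fibroblasts from SMA patients were exposed to compounds for 48 h (7 points, 3.16-fold steps, triplicates). Values are EC1.5× and maximum fold Smn increase.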

| Compound | melting point [°C] | EC (1.5-fold increase) [1] [µM] | EC1.5x for Smn protein expression [2] | maximum fold (Fold) increase of Smn protein [2] |
| --- | --- | --- | --- | --- |
| Cc1cn2nc(-c3cc(=O)n4cc(N5CCN[C@@H](C)C5)ccc4n3)cc2cn1 [Compound 441, 7-[(3S)-3-methylpiperazin-1-yl]-2-(6-methylpyrazolo[1,5-a]pyrazin-2-yl)-4H-pyrido[1,2-a]pyrimidin-4-one] | 235 to 240 | < 0.1 | **** (an EC1.5x≤0.3 μM is indicated by four stars (****)) | ***** (a fold increase >1.65 is indicated by five stars (*****)) |
| Cc1cn2nc(-c3cc(=O)n4cc(N5C[C@@H](C)N[C@@H](C)C5)ccc4n3)cc2cn1 [Compound 442, 7-[(3R,5S)-3,5-dimethylpiperazin-1-yl]-2-(6-methylpyrazolo[1,5-a]pyrazin-2-yl)-4H-pyrido[1,2-a]pyrimidin-4-one] | 258 to 260 | < 0.1 | **** (an EC1.5x≤0.3 μM is indicated by four stars (****)) | ***** (a fold increase >1.65 is indicated by five stars (*****)) |
| CN(C)c1ccc(-c2cc(=O)n3cc(C4=CCNCC4)ccc3n2)cn1 [Compound 444, 2-[6-(dimethylamino)pyridin-3-yl]-7-(1,2,3,6-tetrahydropyridin-4-yl)-4H-pyrido[1,2-a]pyrimidin-4-one] | 255 to 257 | 0.3 to 1 | ** (an EC1.5× between >1 μM and ≤3 μM is indicated by two stars (**)) | *** (a fold increase between >1.35 and ≤1.5 is indicated by three stars (***)) |
| COc1ccc(-c2cc(=O)n3cc(N4CCC(N(C)CCO)CC4)cc(C)c3n2)cc1OC [Compound 446, 2-(3,4-dimethoxyphenyl)-7-{4-[(2-hydroxyethyl)(methyl)amino]piperidin-1-yl}-9-methyl-4H-pyrido[1,2-a]pyrimidin-4-one] | 164 to 171 | < 0.1 | ** (an EC1.5× between >1 μM and ≤3 μM is indicated by two stars (**)) | *** (a fold increase between >1.35 and ≤1.5 is indicated by three stars (***)) |
| Cc1cn2cc(-c3cc(=O)n4cc(C5CCN(C)CC5)ccc4n3)ccc2n1 [Compound 448, 2-(2-methylimidazo[1,2-a]pyridin-6-yl)-7-(1-methylpiperidin-4-yl)-4H-pyrido[1,2-a]pyrimidin-4-one] | 218 to 220 | < 0.1 | **** (an EC1.5x≤0.3 μM is indicated by four stars (****)) | ***** (a fold increase >1.65 is indicated by five stars (*****)) |
| CN1CC=C(c2ccc3nc(-c4ccc5c(cnn5C)c4)cc(=O)n3c2)CC1 [Compound 449, 2-(1-methyl-1H-indazol-5-yl)-7-(1-methyl-1,2,3,6-tetrahydropyridin-4-yl)-4H-pyrido[1,2-a]pyrimidin-4-one] | 148 to 150 | < 0.1 | **** (an EC1.5x≤0.3 μM is indicated by four stars (****)) | **** (a fold increase between >1.5 and ≤1.65 is indicated by four stars (****)) |
| CN1CC=C(c2ccc3nc(-c4ccc(N(C)C)nc4)cc(=O)n3c2)CC1 [Compound 450, 2-[6-(dimethylamino)pyridin-3-yl]-7-(1-methyl-1,2,3,6-tetrahydropyridin-4-yl)-4H-pyrido[1,2-a]pyrimidin-4-one] | 214 to 216 | 0.3 to 1 |  | ** (a fold increase between >1.2 and ≤1.35 is indicated by two stars (**)) |
| Cc1cn2nc(-c3cc(=O)n4cc(C5CCN(C)CC5)ccc4n3)cc2c(C)n1 [Compound 453, 2-(4,6-dimethylpyrazolo[1,5-a]pyrazin-2-yl)-7-(1-methylpiperidin-4-yl)-4H-pyrido[1,2-a]pyrimidin-4-one] | 220 to 222 | < 0.1 | **** (an EC1.5x≤0.3 μM is indicated by four stars (****)) | ***** (a fold increase >1.65 is indicated by five stars (*****)) |

Now from value to compound, other results behind:

| melting point [°C] | Compound | EC (1.5-fold increase) [1] [µM] | EC1.5x for Smn protein expression [2] | maximum fold (Fold) increase of Smn protein [2] |
| --- | --- | --- | --- | --- |
| 298 to 300 | Cc1cn2cc(-c3cc(=O)n4cc(C5CCNCC5)ccc4n3)ccc2n1 [Compound 438, 2-(2-methylimidazo[1,2-a]pyridin-6-yl)-7-(piperidin-4-yl)-4H-pyrido[1,2-a]pyrimidin-4-one] | < 0.1 | **** (an EC1.5x≤0.3 μM is indicated by four stars (****)) | ***** (a fold increase >1.65 is indicated by five stars (*****)) |
| 240 to 242 | Cc1nc2ccc(-c3cc(=O)n4cc(C5CCN(C)CC5)ccc4n3)cc2s1 [Compound 439, 2-(2-methyl-1,3-benzothiazol-6-yl)-7-(1-methylpiperidin-4-yl)-4H-pyrido[1,2-a]pyrimidin-4-one] | 0.1 to 0.3 | ** (an EC1.5× between >1 μM and ≤3 μM is indicated by two stars (**)) | *** (a fold increase between >1.35 and ≤1.5 is indicated by three stars (***)) |
| 230 to 240 | Cc1cn2nc(-c3cc(=O)n4cc(N5CCN(C)CC5)ccc4n3)cc2cn1 [Compound 440, 7-(4-methylpiperazin-1-yl)-2-(6-methylpyrazolo[1,5-a]pyrazin-2-yl)-4H-pyrido[1,2-a]pyrimidin-4-one] | < 0.1 | **** (an EC1.5x≤0.3 μM is indicated by four stars (****)) | **** (a fold increase between >1.5 and ≤1.65 is indicated by four stars (****)) |
| 208 to 210 | CCN(CC)C1CCN(c2ccc3nc(-c4ccc5nc(C)cn5c4)cc(=O)n3c2)CC1 [Compound 445, 7-[4-(diethylamino)piperidin-1-yl]-2-(2-methylimidazo[1,2-a]pyridin-6-yl)-4H-pyrido[1,2-a]pyrimidin-4-one] | < 0.1 | *** (an EC1.5× between >0.3 μM and ≤1 μM is indicated by three stars (***)) | *** (a fold increase between >1.35 and ≤1.5 is indicated by three stars (***)) |
| 140 to 147 | CCc1cc(N2CCN[C@H](C)C2)cn2c(=O)cc(-c3ccc(OC)c(OC)c3)nc12 [Compound 447, 2-(3,4-dimethoxyphenyl)-9-ethyl-7-[(3R)-3-methylpiperazin-1-yl]-4H-pyrido[1,2-a]pyrimidin-4-one] | 0.1 to 0.3 |  | * (A maximum fold increase of ≤1.2 is indicated by one star (*)) |
| 232 to 235 | CCN(CC)C1CCN(c2ccc3nc(-c4cc5c(C)nc(C)cn5n4)cc(=O)n3c2)CC1 [Compound 451, 7-[4-(diethylamino)piperidin-1-yl]-2-(4,6-dimethylpyrazolo[1,5-a]pyrazin-2-yl)-4H-pyrido[1,2-a]pyrimidin-4-one] | < 0.1 | *** (an EC1.5× between >0.3 μM and ≤1 μM is indicated by three stars (***)) | ***** (a fold increase >1.65 is indicated by five stars (*****)) |
